In ChEMBL document CHEMBL4184222, “A multifaceted approach to identify non-specific enzyme inhibition: Application to Mycobacterium tuberculosis shikimate kinase” (Bioorg Med Chem Lett, 2018):
In brackets after ≈: the same amount, converted by molar mass.

What was measured:
[1] = test system: Mycobacterium tuberculosis; assay: Inhibition of Mycobacterium tuberculosis shikimate kinase assessed as reduction in S3P production at 100 uM pre-incubated with 0.02 uM enzyme for 30 mins before ATP and shikimate substrate addition in presence of Triton X-100 by LC-MS assay
[2] = Aggregation property of the compound in water at pH 7 assessed as light scattering intensity counts at 100 uM in presence of Triton X-100 by dynamic light scattering method; type: physicochemical; settings: buffer, pH 7, 100 µM
[3] = test system: Mycobacterium tuberculosis; assay: Antimycobacterial activity against Mycobacterium tuberculosis H37Rv; type: functional
[4] = Aggregation property of the compound in ammonium acetate buffer at pH 7.6 assessed as particle size at 100 uM in absence of Triton X-100 by dynamic light scattering method; type: physicochemical; settings: pH 7.6, 100 µM
[5] = Inhibition of Mycobacterium tuberculosis shikimate kinase assessed as reduction in S3P production […] pre-incubated with 0.015 uM enzyme for 30 mins before ATP and shikimate substrate addition by LC-MS assay
[6] = test system: Mycobacterium tuberculosis; assay: Inhibition of Mycobacterium tuberculosis shikimate kinase assessed as reduction in S3P production at 100 uM pre-incubated with 0.2 uM enzyme for 30 mins before ATP and shikimate substrate addition in presence of Triton X-100 by LC-MS assay
[7] = test system: Mycobacterium tuberculosis; assay: Inhibition of Mycobacterium tuberculosis shikimate kinase assessed as reduction in S3P production at 100 uM pre-incubated with 0.2 uM enzyme for 30 mins before ATP and shikimate substrate addition in absence of Triton X-100 by LC-MS assay
[8] = Aggregation property of the compound in ammonium acetate buffer at pH 7.6 assessed as particle size at 100 uM in presence of Triton X-100 by dynamic light scattering method; type: physicochemical; settings: pH 7.6, 100 µM
[9] = Aggregation property of the compound in ammonium acetate buffer at pH 7.6 assessed as light scattering intensity counts at 100 uM in absence of Triton X-100 by dynamic light scattering method; type: physicochemical; settings: pH 7.6, 100 µM
[10] = Aggregation property of the compound in water at pH 7 assessed as particle size at 100 uM in absence of Triton X-100 by dynamic light scattering method; type: physicochemical; settings: buffer, pH 7, 100 µM
[11] = test system: Mycobacterium tuberculosis; assay: Inhibition of Mycobacterium tuberculosis shikimate kinase assessed as reduction in S3P production at 100 uM pre-incubated with 0.02 uM enzyme for 30 mins before ATP and shikimate substrate addition in absence of Triton X-100 by LC-MS assay
[12] = Aggregation property of the compound in ammonium acetate buffer at pH 7.6 assessed as light scattering intensity counts at 100 uM in presence of Triton X-100 by dynamic light scattering method; type: physicochemical; settings: pH 7.6, 100 µM
[13] = Aggregation property of the compound in water at pH 7 assessed as light scattering intensity counts at 100 uM in absence of Triton X-100 by dynamic light scattering method; type: physicochemical; settings: buffer, pH 7, 100 µM
[14] = Aggregation property of the compound in water at pH 7 assessed as particle size at 100 uM in presence of Triton X-100 by dynamic light scattering method; type: physicochemical; settings: buffer, pH 7, 100 µM
[15] = test system: Mycobacterium tuberculosis; assay: Inhibition of Mycobacterium tuberculosis shikimate kinase assessed as reduction in S3P production at <50 uM pre-incubated for 30 mins before ATP and shikimate substrate addition by LC-MS assay
[16] = Aggregation property of the compound in ammonium acetate buffer at pH 7.6 assessed as particle size at 100 uM in presence of Triton X-100 by transmission electron microscopy; type: physicochemical; settings: pH 7.6, 100 µM
[17] = Aggregation property of the compound in ammonium acetate buffer at pH 7.6 assessed as particle size at 100 uM in absence of Triton X-100 by transmission electron microscopy; type: physicochemical; settings: pH 7.6, 100 µM

Structure (SMILES)	inhibition [1]	Activity [2]	IC90 [3]	Activity [4]	IC50 [5]	inhibition [6]	inhibition [7]	Activity [8]	Activity [9]	Activity [10]	inhibition [11]	Activity [12]	Activity [13]	Activity [14]	inhibition [15]	Activity [16]	Activity [17]
Cc1ccc(-c2nnc(NC(=O)c3ccc([N+](=O)[O-])o3)o2)c(C)c1	0%	72 kCounts	0.69 µg/mL (≈ 2.1 µM)	851 nm	65.7 µM	0%	0%	131 nm	190 kCounts	823 nm	91.6%	83 kCounts	182 kCounts	131 nm	> 90%	–	–
CC(C)(C)C(=O)Nc1nnc(-c2ccc(Br)cc2)o1	–	92 kCounts	< 0.2 µg/mL	1211 nm	–	–	–	201 nm	260 kCounts	1192 nm	–	100 kCounts	250 kCounts	198 nm	> 90%	–	–
Cc1ccc(C)c(-c2nnc(NC(=O)c3ccc([N+](=O)[O-])s3)o2)c1	–	80 kCounts	3.09 µg/mL (≈ 8.97 µM)	986 nm	–	–	–	151 nm	240 kCounts	973 nm	–	85 kCounts	237 kCounts	176 nm	> 90%	–	–
CCc1cccc2sc(N(CCCn3ccnc3)C(=O)/C=C/c3cccs3)nc12	–	270 kCounts	0.83 µg/mL (≈ 1.96 µM)	3776 nm	–	–	–	817 nm	400 kCounts	3823 nm	–	286 kCounts	380 kCounts	908 nm	> 90%	–	–
O=C(/C=C/c1ccccc1)Nc1nnc(-c2ccc3c(c2)CCCC3)o1	0%	138 kCounts	1.68 µg/mL (≈ 4.86 µM)	1820 nm	58.4 µM	0%	0%	390 nm	310 kCounts	1820 nm	95%	141 kCounts	306 kCounts	353 nm	> 90%	–	–
Cc1ccc(-c2nnc(NC(=O)c3ccccc3Cl)o2)c(C)c1	–	95 kCounts	< 0.2 µg/mL	1321 nm	–	–	–	212 nm	270 kCounts	1301 nm	–	115 kCounts	255 kCounts	203 nm	> 90%	–	–
CCSc1ccc(C(=O)Nc2nnc(-c3ccc4c(c3)CCCC4)o2)cc1	–	152 kCounts	1.93 µg/mL (≈ 5.09 µM)	2005 nm	–	–	–	480 nm	340 kCounts	1921 nm	–	158 kCounts	330 kCounts	410 nm	> 90%	–	–
O=C(c1cccs1)N(CCCn1ccnc1)c1nc2c(F)cc(F)cc2s1	–	142 kCounts	2.38 µg/mL (≈ 5.88 µM)	1934 nm	–	–	–	470 nm	321 kCounts	1852 nm	–	150 kCounts	300 kCounts	398 nm	> 90%	–	–
CCCCC(=O)Nc1nnc(-c2ccc3c(c2)CCCC3)o1	–	100 kCounts	3.04 µg/mL (≈ 10.2 µM)	1432 nm	–	–	–	255 nm	280 kCounts	1324 nm	–	131 kCounts	260 kCounts	259 nm	> 90%	–	–
CCOc1ccc(C(=O)Nc2nnc(-c3ccc(C)cc3C)o2)cc1	–	122 kCounts	1.8 µg/mL (≈ 5.34 µM)	1620 nm	–	–	–	354 nm	300 kCounts	1583 nm	–	123 kCounts	280 kCounts	275 nm	> 90%	–	–
CSc1ccc2nc(Nc3nc4ccc(NC(C)=O)cc4s3)sc2c1	0%	115 kCounts	< 0.2 µg/mL	1531 nm	60.6 µM	0%	0%	271 nm	285 kCounts	1438 nm	97.4%	122 kCounts	270 kCounts	275 nm	> 90%	0.03 um	0.7 um
O=C(Nc1nnc(-c2ccccc2Cl)o1)c1cccc(Oc2ccccc2)c1	0%	170 kCounts	0.86 µg/mL (≈ 2.19 µM)	2850 nm	38.7 µM	0%	0%	516 nm	350 kCounts	2423 nm	90%	180 kCounts	330 kCounts	481 nm	> 90%	–	–
Cc1cc(C)c2sc(N3CCCC3)nc2c1	–	130 kCounts	1.75 µg/mL (≈ 7.53 µM)	1750 nm	–	–	–	373 nm	300 kCounts	1762 nm	–	139 kCounts	290 kCounts	343 nm	> 90%	–	–
